In publication PMC9416303, “Two New Picoline-Derived Meroterpenoids with Anti-Acetylcholinesterase Activity from Ascidian-Derived Fungus Amphichorda felina” (Molecules, 2022):
pIC50: −log10 of the molar value.

Target: acetylcholinesterase (AChE) (Electrophorus electricus, UniProt O42275)
Test: modified Ellman's colorimetric assay, commercial AChE (Sigma C3389)
Type: biochemical

Chain of acetylcholinesterase (AChE) (O42275 24-633): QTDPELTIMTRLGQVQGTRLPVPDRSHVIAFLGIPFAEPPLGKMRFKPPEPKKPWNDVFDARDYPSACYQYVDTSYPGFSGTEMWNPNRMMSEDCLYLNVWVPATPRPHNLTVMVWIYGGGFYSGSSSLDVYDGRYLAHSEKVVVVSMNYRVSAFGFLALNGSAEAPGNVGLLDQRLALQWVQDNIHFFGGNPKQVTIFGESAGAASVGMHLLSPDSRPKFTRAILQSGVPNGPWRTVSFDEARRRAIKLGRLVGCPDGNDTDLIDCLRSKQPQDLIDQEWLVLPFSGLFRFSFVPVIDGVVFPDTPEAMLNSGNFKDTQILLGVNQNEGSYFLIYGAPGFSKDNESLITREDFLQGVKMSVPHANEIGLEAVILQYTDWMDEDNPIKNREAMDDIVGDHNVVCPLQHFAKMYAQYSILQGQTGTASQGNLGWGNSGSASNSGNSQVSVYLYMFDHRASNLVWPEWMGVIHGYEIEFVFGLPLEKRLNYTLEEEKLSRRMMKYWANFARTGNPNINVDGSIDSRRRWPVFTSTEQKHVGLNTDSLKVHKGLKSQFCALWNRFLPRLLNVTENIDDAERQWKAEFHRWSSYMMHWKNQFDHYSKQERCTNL

Row | SMILES | pIC50
1 | C[C@H]1COC(c2cc3c(cn2)OC(C)(C)[C@H](O)C3)=CC1=O [compound 1, Amphichoterpenoid D] | 4.90
2 | C[C@@H]1COC(c2cc3c(cn2)OC(C)(C)[C@H](O)C3)=CC1=O [compound 2, Amphichoterpenoid E] | 4.94
